This experiment concerns the target Endothelial lipase (EL) (Homo sapiens (Human), UniProt Q9Y5X9). As to the kind of experiment: Endothelial lipase (EL) enzymatic assay with fluorescent substrate A10070 in DMPG vesicles. The format is biochemical. The method, boiled down:
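Substrate A10070 sits in sonicated DMPG vesicles at 0.11 mole fraction. Lipase and compound preincubated 30 min, 37° C, in HEPES pH 8.0 buffer with CaCl2.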

The structures appear in SMILES notation.

Endothelial lipase (EL), sequence (Q9Y5X9 21-500): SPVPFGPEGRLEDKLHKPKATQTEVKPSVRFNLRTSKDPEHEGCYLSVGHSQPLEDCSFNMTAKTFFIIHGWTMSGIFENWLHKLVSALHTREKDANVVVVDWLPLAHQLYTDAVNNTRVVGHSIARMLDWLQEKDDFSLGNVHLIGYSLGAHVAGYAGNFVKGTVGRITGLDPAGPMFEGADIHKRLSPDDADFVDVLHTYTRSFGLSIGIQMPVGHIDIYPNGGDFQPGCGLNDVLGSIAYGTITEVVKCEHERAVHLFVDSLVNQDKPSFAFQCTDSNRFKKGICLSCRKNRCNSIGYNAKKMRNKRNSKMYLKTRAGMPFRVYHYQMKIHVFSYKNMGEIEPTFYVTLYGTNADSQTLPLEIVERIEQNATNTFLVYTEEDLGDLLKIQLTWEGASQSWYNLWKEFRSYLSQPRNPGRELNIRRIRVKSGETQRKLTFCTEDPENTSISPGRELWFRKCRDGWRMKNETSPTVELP

For the compound `Cc1cc2nc(C(C(=O)NCC(=O)NC3CC3)S(=O)(=O)C(C)C)sc2cc1-c1ccc(C#N)nc1` (stereo not shown) [Example 254, 2-[6-(6-cyanopyridin-3-yl)-5-methyl-1,3-benzothiazol-2-yl]-N-[(cyclopropyl-carbamoyl)methyl]-2-(propane-2-sulfonyl)acetamide], the IC50 turned out to be 9 nM.
The result for `Cc1cc(-c2cc3sc(C(C(=O)NCC(=O)NC4CC4)S(=O)(=O)C(C)C)nc3cc2C)ccn1` (stereo not shown) [Example 255, N-[(cyclopropyl-carbamoyl)methyl]-2-[5-methyl-6-(2-methylpyridin-4-yl)-1,3-benzothiazol-2-yl]-2-(propane-2-sulfonyl) acetamide] reads 5 nM.
The result for `Cc1cc2nc(C(C(=O)NCC(=O)NC3CC3)S(=O)(=O)C(C)C)sc2cc1-c1ccc2c(=O)n(C)ccc2c1` (stereo not shown) [Example 256, N-[(cyclopropyl-carbamoyl)methyl]-2-[5-methyl-6-(2-methyl-1-oxo-1,2-dihydro-isoquinolin-6-yl)-1,3-benzothiazol-2-yl]-2-(propane-2-sulfonyl) acetamide] reads 3 nM.
The value for `Cc1cc(-c2cc3sc(C(C(=O)NCC(=O)NC4CC4)S(=O)(=O)C(C)C)nc3cc2C)cnn1` (stereo not shown) [Example 257, N-[(cyclopropyl-carbamoyl)methyl]-2-[5-methyl-6-(6-methylpyridazin-4-yl)-1,3-benzothiazol-2-yl]-2-(propane-2-sulfonyl) acetamide] was 11 nM.
Compound `Cc1cc2nc(C(C(=O)NCC(=O)NC3CC3)S(=O)(=O)C(C)C)sc2cc1-c1ccc2c(c1)C(=O)NC2` (stereo not shown) [Example 258, N-[(cyclopropyl-carbamoyl)methyl]-2-[5-methyl-6-(3-oxo-2,3-dihydro-1H-isoindol-5-yl)-1,3-benzothiazol-2-yl]-2-(propane-2-sulfonyl) acetamide] showed a half-inhibitory concentration (IC50) of 19 nM.
With `Cc1cc2nc(C(C(=O)NCC(=O)NC3CC3)S(=O)(=O)C(C)C)sc2cc1-c1ccc(C(=O)N2CCC2)cc1` (stereo not shown) [Example 259, 2-{6-[4-(azetidine-1-carbonyl)phenyl]-5-methyl-1,3-benzothiazol-2-yl}-N-[(cyclopropyl-carbamoyl)methyl]-2-(propane-2-sulfonyl)acetamide], the IC50 turned out to be 3 nM.
Turning to `Cc1cc2nc(C(C(=O)NCC(=O)NC3CC3)S(=O)(=O)C(C)C)sc2cc1-c1ccc2cnn(C)c2c1` (stereo not shown) [Example 260, N-[(cyclopropyl-carbamoyl)methyl]-2-[5-methyl-6-(1-methyl-1H-indazol-6-yl)-1,3-benzothiazol-2-yl]-2-(propane-2-sulfonyl)acetamide], the IC50 is 7 nM.
The result for `Cc1cc2nc(C(C(=O)NCC(=O)NC3CC3)S(=O)(=O)C(C)C)sc2cc1-c1ccc(-c2ccccn2)cc1` (stereo not shown) [Example 261, N-[(cyclopropyl-carbamoyl)methyl]-2-{5-methyl-6-[4-(pyridin-2-yl)phenyl]-1,3-benzothiazol-2-yl}-2-(propane-2-sulfonyl) acetamide] reads 4 nM; that for `Cc1ccc(-c2cc3nc(C(C(=O)NCC(=O)NC4CC4)S(=O)(=O)C(C)C)sc3cc2F)cn1` (stereo not shown) [Example 262, N-[(cyclopropyl-carbamoyl)methyl]-2-[6-fluoro-5-(6-methylpyridin-3-yl)-1,3-benzothiazol-2-yl]-2-(propane-2-sulfonyl)acetamide], 10 nM; that for `CC(C)S(=O)(=O)C(C(=O)NCC(=O)NC1CC1)c1nc2cc(-c3ccc(F)nc3)c(F)cc2s1` (stereo not shown) [Example 263, N-[(cyclopropyl-carbamoyl)methyl]-2-[6-fluoro-5-(6-fluoropyridin-3-yl)-1,3-benzothiazol-2-yl]-2-(propane-2-sulfonyl)acetamide], 13 nM.
For `Cc1cc(-c2cc3nc(C(C(=O)NCC(=O)NC4CC4)S(=O)(=O)C(C)C)sc3cc2F)ccn1` (stereo not shown) [Example 264, N-[(cyclopropyl-carbamoyl)methyl]-2-[6-fluoro-5-(2-methylpyridin-4-yl)-1,3-benzothiazol-2-yl]-2-(propane-2-sulfonyl)acetamide], the IC50 turned out to be 7 nM.
`CC(C)c1ccc(-c2cc3nc(C(C(=O)NCC(=O)NC4CC4)S(=O)(=O)C(C)C)sc3cc2F)cn1` (stereo not shown) [Example 265, N-[(cyclopropyl-carbamoyl)methyl]-2-{6-fluoro-5-[6-(propan-2-yl)pyridin-3-yl]-1,3-benzothiazol-2-yl}-2-(propane-2-sulfonyl)acetamide] gave an IC50 of 4 nM.
The result for `CC(C)S(=O)(=O)C(C(=O)NCC(=O)NC1CC1)c1nc2cc(-c3ccc4c(c3)CC(=O)N4)c(F)cc2s1` (stereo not shown) [Example 266, N-[(cyclopropyl-carbamoyl)methyl]-2-[6-fluoro-5-(2-oxo-2,3-dihydro-1H-indol-5-yl)-1,3-benzothiazol-2-yl]-2-(propane-2-sulfonyl)acetamide] reads 38 nM; that for `CC(C)S(=O)(=O)C(C(=O)NCC(=O)NC1CC1)c1nc2cc(-c3ccc4c(=O)n(C)ccc4c3)c(F)cc2s1` (stereo not shown) [Example 267, N-[(cyclopropyl-carbamoyl)methyl]-2-[6-fluoro-5-(2-methyl-1-oxo-1,2-dihydro-isoquinolin-6-yl)-1,3-benzothiazol-2-yl]-2-(propane-2-sulfonyl) acetamide], 5 nM; that for `CC(C)n1cc(-c2cc3nc(C(C(=O)NCC(=O)NC4CC4)S(=O)(=O)C(C)C)sc3cc2F)ccc1=O` (stereo not shown) [Example 268, N-[(cyclopropyl-carbamoyl)methyl]-2-{6-fluoro-5-[6-oxo-1-(propan-2-yl)-1,6-dihydropyridin-3-yl]-1,3-benzothiazol-2-yl}-2-(propane-2-sulfonyl)acetamide], 11 nM.
The value for `COC(=O)Nc1ccc(-c2cc3nc(C(C(=O)NCC(=O)NC4CC4)S(=O)(=O)C(C)C)sc3cc2F)cc1` (stereo not shown) [Example 269, methyl N-{4-[2-({[(cyclopropyl-carbamoyl)methyl]carbamoyl} (propane-2-sulfonyl)methyl)-6-fluoro-1,3-benzothiazol-5-yl]phenyl}carbamate] was 6 nM; that for `CC(C)S(=O)(=O)C(C(=O)NCC(=O)NC1CC1)c1nc2cc(-c3ccc4[nH]c(=O)ccc4c3)c(F)cc2s1` (stereo not shown) [Example 270, N-[(cyclopropyl-carbamoyl)methyl]-2-[6-fluoro-5-(2-oxo-1,2-dihydroquinolin-6-yl)-1,3-benzothiazol-2-yl]-2-(propane-2-sulfonyl)acetamide] was 9 nM; that for `Cc1cc(-c2cc3nc(C(C(=O)NCC(=O)NC4CC4)S(=O)(=O)C(C)C)sc3cc2F)cnn1` (stereo not shown) [Example 271, N-[(cyclopropyl-carbamoyl)methyl]-2-[6-fluoro-5-(6-methylpyridazin-4-yl)-1,3-benzothiazol-2-yl]-2-(propane-2-sulfonyl)acetamide] was 45 nM.
The compound `CC(C)S(=O)(=O)C(C(=O)NCC(=O)NC1CC1)c1nc2cc(-c3cccnc3F)c(F)cc2s1` (stereo not shown) [Example 272, N-[(cyclopropyl-carbamoyl)methyl]-2-[6-fluoro-5-(2-fluoropyridin-3-yl)-1,3-benzothiazol-2-yl]-2-(propane-2-sulfonyl)acetamide] yielded an IC50 of 29 nM.
The result for `CC(C)S(=O)(=O)C(C(=O)NCC(=O)NC1CC1)c1nc2cc(-c3ccc4cnn(C)c4c3)c(F)cc2s1` (stereo not shown) [Example 273, N-[(cyclopropyl-carbamoyl)methyl]-2-[6-fluoro-5-(1-methyl-1H-indazol-6-yl)-1,3-benzothiazol-2-yl]-2-(propane-2-sulfonyl)acetamide] reads 9 nM.
As to `CC(C)S(=O)(=O)C(C(=O)NCC(=O)NC1CC1)c1nc2cc(-c3cccc4c3cnn4C)c(F)cc2s1` (stereo not shown) [Example 274, N-[(cyclopropyl-carbamoyl)methyl]-2-[6-fluoro-5-(1-methyl-1H-indazol-4-yl)-1,3-benzothiazol-2-yl]-2-(propane-2-sulfonyl)acetamide], the IC50 stood at 3 nM.
As for `CC(C)S(=O)(=O)C(C(=O)NCC(=O)NC1CC1)c1nc2cc(-c3ccc(C#N)cc3)c(F)cc2s1` (stereo not shown) [Example 275, 2-[5-(4-cyanophenyl)-6-fluoro-1,3-benzothiazol-2-yl]-N-[(cyclopropyl-carbamoyl)methyl]-2-(propane-2-sulfonyl)acetamide], the IC50 worked out at 40 nM.
Regarding `CC(C)S(=O)(=O)C(C(=O)NCC(=O)NC1CC1)c1nc2cc(-c3cn(C)c(=O)c4ccccc34)c(F)cc2s1` (stereo not shown) [Example 276, N-[(cyclopropyl-carbamoyl)methyl]-2-[6-fluoro-5-(2-methyl-1-oxo-1,2-dihydro-isoquinolin-4-yl)-1,3-benzothiazol-2-yl]-2-(propane-2-sulfonyl) acetamide], 8 nM corresponded to half-maximal inhibition (IC50).
The result for `CC(C)S(=O)(=O)C(C(=O)NCC(=O)NC1CC1)c1nc2cc(-c3ccc(C(=O)N4CCC4)cc3)c(F)cc2s1` (stereo not shown) [Example 277, 2-{5-[4-(azetidine-1-carbonyl)phenyl]-6-fluoro-1,3-benzothiazol-2-yl}-N-[(cyclopropyl-carbamoyl)methyl]-2-(propane-2-sulfonyl)acetamide] reads 13 nM; that for `COC(=O)Nc1cccc(-c2ccc3nc(C(C(=O)NCC(=O)NC4CC4)S(=O)(=O)Cc4cccc(C#N)c4)sc3c2)c1` (stereo not shown) [Example 278, methyl N-(3-{2-[(3-cyanophenyl)methanesulfonyl ({[(cyclopropyl-carbamoyl)methyl]carbamoyl})methyl]-1,3-benzothiazol-6-yl}phenyl)carbamate], 9 nM.
Turning to `CC(=O)Nc1cccc(-c2ccc3nc(C(C(=O)NCC(=O)NC4CC4)S(=O)(=O)Cc4cccc(C#N)c4)sc3c2)c1` (stereo not shown) [Example 279], the IC50 came to 89 nM.
`COC(=O)Nc1cccc(-c2cc(F)c3nc(C(C(=O)NCC(=O)NC4CC4)S(=O)(=O)C(C)C)sc3c2)c1` (stereo not shown) [Example 280, methyl N-{3-[2-({[(cyclopropyl-carbamoyl)methyl]carbamoyl} (propane-2-sulfonyl)methyl)-4-fluoro-1,3-benzothiazol-6-yl]phenyl}carbamate] had an IC50 of 6 nM.
The value for `CC(C)S(=O)(=O)C(C(=O)NCC(=O)NC1CC1)c1nc2c(F)cc(-c3ccc4cnn(C)c4c3)cc2s1` (stereo not shown) [Example 281, N-[(cyclopropyl-carbamoyl)methyl]-2-[4-fluoro-6-(1-methyl-1H-indazol-6-yl)-1,3-benzothiazol-2-yl]-2-(propane-2-sulfonyl)acetamide] was 9 nM.

(Values after US10173991B2, “Sulfone amide linked benzothiazole inhibitors of endothelial lipase” (BRISTOL-MYERS SQUIBB COMPANY, priority 2014, dated 2019).)
